Reference: PubChem BioAssay (NCI)
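Grown in 96-well plates, cells were treated for 48 hours with each compound at five concentrations. Insufficient inhibition: endpoint recorded as highest concentration tested. GI50 = concentration required for 50% inhibition of growth. Definition used: TGI = concentration required for complete inhibition of growth.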

Columns and labels:
Experiment in all cases: NCI tumour cell line growth inhibition, 48 h
[1] = tested on: ACHN renal
[2] = tested on: COLO 205 colon
[3] = tested on: HOP-62 NSCLC
[4] = tested on: HT29 colon
[5] = tested on: NCI-H226 lung
[6] = tested on: SK-MEL-5 melanoma
[7] = tested on: SR leukemia
[8] = tested on: U251 CNS
[9] = tested on: UACC-257 melanoma
[10] = tested on: CCRF-CEM leukemia

| Structure (SMILES) | GI50 [1] | TGI [1] | GI50 [2] | TGI [2] | GI50 [3] | TGI [3] | GI50 [4] | TGI [4] | GI50 [5] | TGI [5] | GI50 [6] | TGI [6] | GI50 [7] | TGI [7] | GI50 [8] | TGI [8] | GI50 [9] | TGI [9] | TGI [10] | GI50 [10] |
| --- | --- | --- | --- | --- | --- | --- | --- | --- | --- | --- | --- | --- | --- | --- | --- | --- | --- | --- | --- | --- |
| COc1cc(C2C(C#N)=C(N)OC3=C2C(=O)c2ccccc2C3=O)cc(OC)c1OC (stereo not given) | 0.571 µM | 16.6 µM | 3.55 µM | 19.7 µM | 0.961 µM | 17.7 µM | 3.45 µM | 41.3 µM | 1.39 µM | 23.7 µM | 0.439 µM | 1.81 µM | 0.337 µM | > 100 µM | 3.38 µM | 44 µM | 1.18 µM | 13.3 µM | – | – |
| COc1ccc2c(c1)CC[C@@H]1C2CC[C@]2(C)C(=O)NC(=O)CC12 (stereo not given in full) | – | > 100 µM | – | > 100 µM | – | > 100 µM | – | > 100 µM | – | > 100 µM | – | > 100 µM | – | – | – | > 100 µM | – | > 100 µM | > 100 µM | – |
| Cc1cc(C)c(C(=O)OC(c2ccccc2)C(c2ccccc2)N2CCOCC2)c(C)c1 (stereo not given) | – | > 100 µM | – | > 100 µM | – | > 100 µM | – | > 100 µM | – | > 100 µM | – | – | – | – | – | > 100 µM | – | > 100 µM | > 100 µM | – |
| COc1ccc(-c2ccc(-c3ccc(C(=N)N)cn3)s2)cc1Cl | 1.64 µM | 3 µM | 1.41 µM | 3.15 µM | 1.79 µM | 3.83 µM | 1.18 µM | 2.87 µM | – | – | 1.82 µM | 3.32 µM | – | – | – | – | – | – | – | – |
| CC(C)(C)CC(C)(C)c1ccc(OCCOCCSC(=N)N)cc1 | 1.72 µM | 3.22 µM | 1.65 µM | 3.12 µM | 1.87 µM | 3.36 µM | 1.78 µM | 3.42 µM | – | – | – | – | – | – | 1.65 µM | 3.04 µM | 1.69 µM | 3.18 µM | 6.02 µM | 2.46 µM |
| CCC1(CN(C)C)CC/C(=C\c2ccc3c(c2)OCO3)C1=O (stereo not given) | – | > 100 µM | – | > 100 µM | – | > 100 µM | – | > 100 µM | – | > 100 µM | – | > 100 µM | – | – | – | > 100 µM | – | > 100 µM | > 100 µM | – |
| O=C1/C(=C/c2cccs2)CCC/C1=C\c1cccs1 | 57 µM | > 100 µM | > 100 µM | > 100 µM | 21.9 µM | 49.2 µM | > 100 µM | > 100 µM | 49.1 µM | > 100 µM | > 100 µM | > 100 µM | > 94.9 µM | > 100 µM | 30.6 µM | > 100 µM | 79.1 µM | > 100 µM | – | – |
| COc1ccc(O)c2c1C(=O)CCCC2=O | – | > 100 µM | – | > 100 µM | – | > 100 µM | – | > 100 µM | – | – | – | > 100 µM | – | – | – | > 100 µM | – | > 100 µM | > 100 µM | – |
| c1ccc(-c2nc(N3CCNCC3)c3nc(-c4ccccc4)oc3n2)cc1 | 1.71 µM | 3.09 µM | 2.06 µM | 4.12 µM | 1.98 µM | 3.94 µM | 1.84 µM | 3.85 µM | – | – | 1.8 µM | 3.23 µM | 0.298 µM | 1.2 µM | – | – | 1.93 µM | 3.81 µM | 3.83 µM | 1.38 µM |
| O=C(/C=C/c1cccc(Cl)c1)c1ccc(Cl)cc1Cl | 15.3 µM | 38.4 µM | 12.2 µM | 40.6 µM | 17.4 µM | > 50 µM | – | – | – | – | 8.78 µM | 17.5 µM | 0.005 µM | 4.31 µM | 8.37 µM | 21.1 µM | – | – | – | – |
| COc1ccc(/C=C\c2cc(OC)c(OC)c(OC)c2)c(NS(=O)(=O)c2ccc(C)cc2)c1O | 0.0874 µM | > 59.9 µM | 0.723 µM | 3.89 µM | 1.29 µM | > 100 µM | 0.813 µM | > 45.7 µM | – | – | 0.0359 µM | 0.195 µM | 0.031 µM | > 51.5 µM | 0.0418 µM | > 100 µM | 17.8 µM | > 100 µM | > 100 µM | 0.0407 µM |
| CC(=O)OC1CCC2(C)C(=CC(C3C=C4CC(OC(C)=O)CCC4(C)C4=C3C3CC5OC6(CCC(C)CO6)C(C)C5C3(C)CC4)C3=C2CCC2(C)C3CC3OC4(CCC(C)CO4)C(C)C32)C1 (stereo not given) | – | 29.2 µM | – | 36.1 µM | – | 32.5 µM | – | 27.2 µM | – | 41.5 µM | – | 25.7 µM | – | 28.3 µM | – | 27.8 µM | – | 21.9 µM | – | – |
| COc1ccc2c3c(c(OCCCN(C)C)nc2c1)-c1ccc(Cl)cc1C3=O | 1.26 µM | 4.26 µM | 5.57 µM | 26.6 µM | 7.71 µM | 25.3 µM | 2.01 µM | 17.6 µM | 3.52 µM | 21.7 µM | 14.6 µM | 28.4 µM | – | – | 4.74 µM | 16.6 µM | 16.4 µM | 33 µM | 66 µM | 7.89 µM |
| Cn1c(=O)c2[nH]c(COc3ccc(C(C)(C)C)cc3)nc2n(C)c1=O | 9.58 µM | 89.8 µM | 50.3 µM | > 100 µM | 35.4 µM | > 100 µM | 29.3 µM | > 100 µM | 25.6 µM | > 100 µM | 4.68 µM | 20.6 µM | 5.12 µM | 55.9 µM | 37.5 µM | > 100 µM | 6.03 µM | 31.6 µM | – | – |
| O=c1cccccc1NCCCCNc1cccccc1=O | – | > 100 µM | – | > 100 µM | – | > 100 µM | – | > 100 µM | – | > 100 µM | – | 96.8 µM | – | – | – | > 100 µM | – | > 100 µM | > 100 µM | – |
| COc1cc(C2C(C(=O)Nc3ccccc3)=C(C)NC(C)=C2C(=O)Nc2ccccc2)ccc1O | – | > 100 µM | – | 60.4 µM | – | > 100 µM | – | 33.8 µM | – | > 100 µM | – | – | – | 93.3 µM | – | > 100 µM | – | > 100 µM | – | – |
| O=C(NNS(=O)(=O)c1cc(C(F)(F)F)cc(C(F)(F)F)c1)c1cnn(-c2ccc(Cl)cc2)c1C(F)(F)F | 21.6 µM | 51.2 µM | 17.4 µM | 34.8 µM | 18.2 µM | 34.3 µM | 31.7 µM | > 100 µM | 20.7 µM | 54.3 µM | 14.3 µM | 29.6 µM | 19.4 µM | 42 µM | 17.3 µM | 35.3 µM | 15.2 µM | 43.7 µM | – | – |
